# Paper PMC11233931, “Remodeling tumor‐associated macrophage for anti‐cancer effects by rational design of irreversible inhibition of mitogen‐activated protein kinase‐activated protein kinase 2” (MedComm, 2024)
# How the values were obtained:
# [1] = Cell viability assay (CCK-8), MIA Paca-2; format: cell-based; details: MIA Paca-2 cells (pancreatic carcinoma), MIA Paca-2, human pancreatic carcinoma, read-out: IC50 (μM) mean ± SD, cytotoxicity
# Protocol: (§1) In cellular experiments, cells are seeded into either 6-well or 96-well plates and incubated overnight, proceeding with treatments as described in the figure legends or methods section. The cell inoculation numbers are outlined as follows: For assays measuring cell viability, between 3,000 to 5,000 cells are seeded per well in 96-well plates. For other cellular assays, the seeding density ranges from 5×10^5 to 1×10^6 cells per well in 6-well plates.
# (§2) Cells was plated into 96-well plates and incubated overnight prior to introduction of varying concentrations of compounds or control solvent. Following a 72-hour exposure period, cell viability was determined using a Cell Counting Kit-8 assay (Life-iLab, China). Dose-response curves were fitted using a four-parameter method facilitated by SoftMax Pro, which was subsequently used for the computation of IC50 values.
# TTK = molecular target: T1, TTK (Homo sapiens, UniProt P33981); assay: Eurofins kinase selectivity profile, TTK; format: biochemical
# T1 construct: purchased Eurofins (Celle Lévescault)
# T1 sequence (P33981 1-857): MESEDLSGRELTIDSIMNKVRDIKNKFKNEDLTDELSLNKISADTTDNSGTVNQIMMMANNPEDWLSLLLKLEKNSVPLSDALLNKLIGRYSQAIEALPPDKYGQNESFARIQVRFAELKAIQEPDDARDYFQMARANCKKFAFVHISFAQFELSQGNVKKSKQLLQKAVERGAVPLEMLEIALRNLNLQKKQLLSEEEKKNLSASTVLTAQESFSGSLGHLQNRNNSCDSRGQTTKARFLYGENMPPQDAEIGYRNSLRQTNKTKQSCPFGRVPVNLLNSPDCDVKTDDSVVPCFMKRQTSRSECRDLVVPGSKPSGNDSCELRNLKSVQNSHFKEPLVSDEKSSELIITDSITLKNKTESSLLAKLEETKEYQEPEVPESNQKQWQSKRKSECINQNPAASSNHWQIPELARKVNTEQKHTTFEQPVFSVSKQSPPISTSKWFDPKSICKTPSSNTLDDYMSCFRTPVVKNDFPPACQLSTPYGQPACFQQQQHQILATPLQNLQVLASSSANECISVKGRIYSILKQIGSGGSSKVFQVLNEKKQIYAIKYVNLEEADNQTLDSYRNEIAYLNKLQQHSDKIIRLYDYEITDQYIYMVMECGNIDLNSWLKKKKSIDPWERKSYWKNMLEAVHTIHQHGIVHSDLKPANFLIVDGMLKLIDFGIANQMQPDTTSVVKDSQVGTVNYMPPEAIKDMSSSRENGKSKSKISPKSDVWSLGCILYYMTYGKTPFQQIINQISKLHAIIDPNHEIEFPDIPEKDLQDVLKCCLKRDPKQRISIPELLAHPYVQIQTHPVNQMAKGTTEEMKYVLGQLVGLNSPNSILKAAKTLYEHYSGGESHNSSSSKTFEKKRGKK
# Protocol: Subsequently, to ascertain whether the high potency of compound 11 was specific for MK2, an additional 380 human recombinant protein kinases were screened.
# To assess the impact of various compounds on MK2 kinase activity, we utilized the ADP‐Glo Assay Kit (Promega) following the manufacturer's instructions. Luminescence measurements were taken using a SpectraMax Paradigm reader. The inhibition percentage was calculated using the following formula: ((specific signalDMSO control − specific signal inhibitor)/(specific signalDMSO control)) × 100%. The IC50 values were determined employing dose–response curve fitting via Prism (Graph Pad). Additionally, Eurofins company (Celle Lévescault) conducted the analysis on compound 11’s inhibitory activity against 380 other human recombinant kinases at various concentrations.
# p-Hsp27 = assay: Cellular washout assay, p-Hsp27 by western blot; format: cell-based; details: 1 h pretreatment, then LPS
# Protocol: (§3) FIGURE 4 Targeting cellular MK2 signaling with irreversible inhibition by compound 11. (A and B) RT‐PCR analysis of IL‐1β, TNF‐α, and IL‐6 expression in Lipopolysaccharides (LPS)‐stimulated THP‐1 (A) and RAW264.7 (B) Cells, with pre‐treatment of compound 11 for 3 h followed by LPS (3 h) stimulation. (C) The inhibitory effects of compound 11 on TNF‐α and IL‐6 production in LPS‐stimulated RAW264.7 macrophages for 24 h, measured by ELISA. (D and E) Compound 11, alongside CC‐99677 and PF‐3644022, suppressed MK2 pathway activation, validated through western blot analysis post‐LPS stimulation. Cells were preincubated with the specified compounds for 1 h prior to LPS stimulation (100 ng/mL, 30 min). (F) Distinguishes the mode of action between compound 11 and CC‐99677. The complex structure of a small molecule and MK2 (3R2Y) with the same parent nucleus as compound 11 is shown in cyans, and the complex structure of a small molecule and MK2 (3FYJ) with the same parent nucleus as CC‐99677 is shown in orange. (G–I) The effect of indicated inhibitor on Hsp27 phosphorylation following inhibitor washout. Cells were pretreated with indicated compounds for 1 h and then washed to remove free compound and incubated for a further indicated time before activation with LPS. In (A–C), LPS (100 ng/mL) served as the stimulation control, while untreated cells were the baseline control. The data represent as mean ± SD from triplicates, with statistical analysis conducted via one‐way analysis of variance (ANOVA) (^## p < 0.01, ^### p < 0.001 vs. stimulation control; ^***p < 0.001 vs. baseline control).
# Furthermore, to validate the irreversible mechanism of action of compound 11 at the cellular level, we performed a cellular washout assay and assessed p‐Hsp27 levels. The established MK2 irreversible inhibitor CC‐99677 served as positive control, while the reversible ATP‐competitive inhibitor PF‐3644022 was used as negative control. […] In contrast, only 1 h after PF‐3644022 washout, p‐Hsp27 level was totally recovered (Figure 4I).
# After the treatment outlined in the figure legends, cells were lysed using 1× sodium dodecyl sulfate (SDS) solution. The lysates were then subjected to SDS‐polyacrylamide gel electrophoresis for separation, followed by transferring onto nitrocellulose membranes. The membranes were incubated with primary antibodies specific to phospho‐MK2, phospho‐Hsp27, MK2, Hsp27, GAPDH, and β‐actin (Cell Signaling Technology), followed by horseradish peroxidase‐conjugated anti‐mouse or anti‐rabbit IgG secondary antibodies. Protein bands were detected using an enhanced chemiluminescence detection reagent (Thermo Fisher Scientific).
# [2] = test system: IL-6 and TNF-α secretion by RAW264.7 cells; assay: Cytokine production by ELISA in LPS-stimulated RAW264.7; format: cell-based, mouse; details: LPS-stimulated RAW264.7, 24 h
# Protocol: as §3, with “Cells were pretreated with indicated compounds for 1 h and then washed to remove free compound and incubated for a further indicated time before activation with LPS. In (A–C), LPS (100 ng/mL) served as the stimulation control, while untreated cells were the baseline control. The data represent as mean ± SD from triplicates, with statistical analysis conducted via one‐way analysis of variance (ANOVA) (^## p < 0.01, ^### p < 0.001 vs. stimulation control; ^***p < 0.001 vs. baseline control).” left out
# Following collection and centrifugation of the cell culture media, supernatants were harvested and the levels of cytokine secretion were evaluated using specific ELISA kits (absin), following the manufacturer's protocol.
# [3] = Cell viability assay (CCK-8), Raw264.7; format: cell-based; details: Raw264.7 cells (mononuclear macrophage), Raw264.7, mouse mononuclear macrophage, read-out: IC50 (μM) mean ± SD, cytotoxicity
# Protocol: as §1, §2
smiles,measurement,setting,value
C=CC(=O)Nc1cc(-c2cc(-c3cc4c([nH]3)CCNC4=O)ccn2)ccc1OC(F)(F)F [compound 11],IC50 at 72 h,[1],47.8 ± 2.8 µM
same,IC50,TTK,> 1000 nM
same,inhibition at 0.01 µM,"TTK; TTK(h), 10 nM, read-out: Inhibition rate",-1%
same,inhibition at 0.1 µM,"TTK; TTK(h), 100 nM, read-out: Inhibition rate",7%
same,inhibition at 1 µM,"TTK; TTK(h), 1000 nM, read-out: Inhibition rate",43%
same,p-Hsp27 level 3 h after inhibitor washout,p-Hsp27; 3 h,still significantly inhibited
same,time after inhibitor washout at which p-Hsp27 level recovered,p-Hsp27,24 h
same,effect on secretion level of IL-6 and TNF-α,[2],similarly reduced
same,IC50 at 72 h,[3],31.7 ± 2.9 µM
